This is an account of results in article PMC8213057, “Targeting ALK2: An Open Science Approach to Developing Therapeutics for the Treatment of Diffuse Intrinsic Pontine Glioma” (Journal of Medicinal Chemistry, 2020).

By amount remaining is commonly meant what is left of the initial amount, in per cent.

The nature of data set [1]: human liver microsomal stability assay. The class given is in vitro ADME. The note with it: human, microsomes, pH 7.4, human liver microsomes, 60 min, 37 °C, read-out: HLM % Remaining at 1h.
The target of another data set is CDK2/cyclin E2 (Homo sapiens, UniProt P24941). As to conditions: 1 μM; Run 1, Run 2.
In the next data set the target is CDK5/P25 (Homo sapiens, UniProt Q00535). As to conditions: 1 μM; Run 1, Run 2.
CDK5/P25, sequence (Q00535 whole entry): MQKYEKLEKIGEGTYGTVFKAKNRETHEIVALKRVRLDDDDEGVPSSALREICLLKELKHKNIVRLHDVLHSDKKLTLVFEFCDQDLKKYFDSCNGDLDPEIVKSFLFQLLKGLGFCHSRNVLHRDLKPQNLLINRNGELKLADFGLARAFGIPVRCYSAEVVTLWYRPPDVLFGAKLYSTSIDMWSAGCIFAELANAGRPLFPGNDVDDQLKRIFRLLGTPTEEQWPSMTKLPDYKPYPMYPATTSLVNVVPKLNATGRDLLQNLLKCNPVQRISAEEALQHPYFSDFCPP
CDK5/P25, sequence (Q15078 99-307 partner limits assumed): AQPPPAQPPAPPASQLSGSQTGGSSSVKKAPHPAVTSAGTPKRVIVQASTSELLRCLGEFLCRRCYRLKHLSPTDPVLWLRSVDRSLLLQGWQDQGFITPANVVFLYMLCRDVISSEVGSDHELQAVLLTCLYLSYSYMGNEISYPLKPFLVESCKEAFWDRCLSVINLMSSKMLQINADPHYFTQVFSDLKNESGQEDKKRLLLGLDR
For a further data set, the target named is EPHA7 (Homo sapiens, UniProt Q15375). The note with it: 1 μM; Run 1, Run 2.
EPHA7, sequence (Q15375 28-998): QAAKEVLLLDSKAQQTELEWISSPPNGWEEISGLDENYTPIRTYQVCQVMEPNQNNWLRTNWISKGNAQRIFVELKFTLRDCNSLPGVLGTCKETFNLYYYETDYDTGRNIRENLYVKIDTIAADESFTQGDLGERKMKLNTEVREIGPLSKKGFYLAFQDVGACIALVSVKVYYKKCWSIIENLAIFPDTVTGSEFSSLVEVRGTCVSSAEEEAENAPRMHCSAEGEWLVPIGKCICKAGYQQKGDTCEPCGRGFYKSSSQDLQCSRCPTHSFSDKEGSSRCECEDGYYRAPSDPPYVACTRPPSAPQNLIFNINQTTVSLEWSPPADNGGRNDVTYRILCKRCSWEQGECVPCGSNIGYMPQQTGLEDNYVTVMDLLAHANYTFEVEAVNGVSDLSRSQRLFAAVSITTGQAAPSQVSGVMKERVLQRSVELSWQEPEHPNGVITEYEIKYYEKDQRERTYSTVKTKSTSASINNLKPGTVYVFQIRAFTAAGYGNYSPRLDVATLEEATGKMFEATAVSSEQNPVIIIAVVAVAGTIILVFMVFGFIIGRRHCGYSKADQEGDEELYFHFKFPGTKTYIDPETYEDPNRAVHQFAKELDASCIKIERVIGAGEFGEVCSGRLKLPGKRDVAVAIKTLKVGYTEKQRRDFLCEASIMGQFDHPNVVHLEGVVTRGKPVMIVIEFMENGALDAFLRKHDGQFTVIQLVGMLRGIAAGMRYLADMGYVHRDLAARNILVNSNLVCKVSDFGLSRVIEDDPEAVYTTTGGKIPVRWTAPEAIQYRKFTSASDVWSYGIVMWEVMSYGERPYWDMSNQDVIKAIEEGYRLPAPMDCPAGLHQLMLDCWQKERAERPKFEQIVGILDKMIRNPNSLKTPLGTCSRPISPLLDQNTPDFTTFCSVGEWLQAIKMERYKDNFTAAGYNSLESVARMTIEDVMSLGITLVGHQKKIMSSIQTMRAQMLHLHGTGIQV
The next data set addresses FLT4/VEGFR3 (Homo sapiens, UniProt P35916). The note with it: 1 μM; Run 1, Run 2.
The target in the next data set is T1, Haspin (Homo sapiens, UniProt Q8TF76).
T1 sequence (Q8TF76 1-798): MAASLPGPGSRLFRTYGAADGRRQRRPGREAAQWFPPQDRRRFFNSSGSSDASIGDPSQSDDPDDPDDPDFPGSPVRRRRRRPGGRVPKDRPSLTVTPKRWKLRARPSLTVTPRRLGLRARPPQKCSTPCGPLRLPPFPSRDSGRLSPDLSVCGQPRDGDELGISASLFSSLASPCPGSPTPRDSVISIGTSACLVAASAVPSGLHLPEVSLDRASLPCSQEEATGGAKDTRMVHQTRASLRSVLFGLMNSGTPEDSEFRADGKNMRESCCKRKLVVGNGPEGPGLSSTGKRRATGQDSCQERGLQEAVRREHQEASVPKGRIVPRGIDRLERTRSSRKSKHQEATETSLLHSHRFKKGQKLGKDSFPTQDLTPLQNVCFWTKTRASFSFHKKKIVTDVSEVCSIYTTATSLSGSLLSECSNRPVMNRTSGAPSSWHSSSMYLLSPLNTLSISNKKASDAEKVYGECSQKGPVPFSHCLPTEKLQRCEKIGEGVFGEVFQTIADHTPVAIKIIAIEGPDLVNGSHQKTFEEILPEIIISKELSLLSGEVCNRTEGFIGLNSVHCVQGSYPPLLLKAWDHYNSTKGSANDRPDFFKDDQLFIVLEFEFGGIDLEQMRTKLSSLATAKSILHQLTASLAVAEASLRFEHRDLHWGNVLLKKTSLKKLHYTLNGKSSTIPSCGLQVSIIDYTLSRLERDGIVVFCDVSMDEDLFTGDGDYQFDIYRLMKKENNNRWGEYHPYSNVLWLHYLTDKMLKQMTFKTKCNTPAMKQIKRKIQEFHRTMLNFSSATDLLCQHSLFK
As to conditions: 1 μM; Run 1, Run 2.

Another data set deals with T2, NEK9 (Homo sapiens, UniProt Q8TD19).
T2 sequence (Q8TD19 1-979): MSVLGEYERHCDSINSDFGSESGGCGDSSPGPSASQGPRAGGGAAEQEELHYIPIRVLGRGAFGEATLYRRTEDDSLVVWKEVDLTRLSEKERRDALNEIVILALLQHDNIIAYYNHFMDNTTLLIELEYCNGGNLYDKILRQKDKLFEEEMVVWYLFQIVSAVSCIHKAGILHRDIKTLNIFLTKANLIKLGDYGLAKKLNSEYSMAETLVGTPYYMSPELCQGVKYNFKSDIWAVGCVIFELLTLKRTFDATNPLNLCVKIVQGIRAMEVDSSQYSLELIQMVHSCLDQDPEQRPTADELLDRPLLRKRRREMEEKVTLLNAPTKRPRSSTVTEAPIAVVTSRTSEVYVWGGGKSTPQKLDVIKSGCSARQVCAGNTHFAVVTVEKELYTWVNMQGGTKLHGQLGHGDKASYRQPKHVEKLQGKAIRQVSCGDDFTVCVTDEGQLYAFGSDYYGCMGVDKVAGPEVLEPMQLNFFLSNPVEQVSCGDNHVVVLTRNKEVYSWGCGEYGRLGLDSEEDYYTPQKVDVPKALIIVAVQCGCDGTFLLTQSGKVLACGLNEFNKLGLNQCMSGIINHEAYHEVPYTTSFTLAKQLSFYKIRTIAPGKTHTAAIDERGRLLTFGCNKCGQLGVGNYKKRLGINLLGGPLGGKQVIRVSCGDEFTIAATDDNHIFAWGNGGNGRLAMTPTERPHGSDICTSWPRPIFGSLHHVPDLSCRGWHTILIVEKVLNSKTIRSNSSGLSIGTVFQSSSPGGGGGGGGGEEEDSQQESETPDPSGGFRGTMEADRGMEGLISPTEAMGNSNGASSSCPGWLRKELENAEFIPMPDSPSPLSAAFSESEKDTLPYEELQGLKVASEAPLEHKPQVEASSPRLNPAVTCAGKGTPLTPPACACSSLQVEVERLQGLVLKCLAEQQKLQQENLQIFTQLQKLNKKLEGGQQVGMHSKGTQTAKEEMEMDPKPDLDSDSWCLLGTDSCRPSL
As to conditions: 1 μM; Run 1, Run 2.

In a further data set the target is PAK6 (Homo sapiens, UniProt Q9NQU5). The note with it: 1 μM; Run 1, Run 2.
PAK6, sequence (Q9NQU5 whole entry): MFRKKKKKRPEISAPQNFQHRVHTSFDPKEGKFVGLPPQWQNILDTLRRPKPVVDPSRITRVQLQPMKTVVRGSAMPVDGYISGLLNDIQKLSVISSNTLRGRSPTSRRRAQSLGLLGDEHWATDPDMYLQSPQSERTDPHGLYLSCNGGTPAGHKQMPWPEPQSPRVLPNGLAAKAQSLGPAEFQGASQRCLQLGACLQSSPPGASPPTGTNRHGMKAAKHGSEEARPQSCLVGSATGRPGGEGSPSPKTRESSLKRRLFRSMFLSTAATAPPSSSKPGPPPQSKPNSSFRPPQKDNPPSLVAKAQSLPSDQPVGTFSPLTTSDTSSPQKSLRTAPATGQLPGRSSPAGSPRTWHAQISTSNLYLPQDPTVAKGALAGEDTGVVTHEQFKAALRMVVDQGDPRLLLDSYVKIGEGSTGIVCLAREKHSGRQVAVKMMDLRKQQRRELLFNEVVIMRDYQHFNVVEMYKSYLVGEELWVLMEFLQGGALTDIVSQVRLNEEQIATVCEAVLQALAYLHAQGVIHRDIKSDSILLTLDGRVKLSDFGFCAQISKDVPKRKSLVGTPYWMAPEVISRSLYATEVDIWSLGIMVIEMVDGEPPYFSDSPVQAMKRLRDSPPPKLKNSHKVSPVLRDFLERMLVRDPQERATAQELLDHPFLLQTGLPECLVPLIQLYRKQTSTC
A further data set deals with STK32B/YANK2 (Homo sapiens, UniProt Q9NY57). As to conditions: 1 μM; Run 1, Run 2.
The target in another data set is STK33 (Homo sapiens, UniProt Q9BYT3). The note with it: 1 μM; Run 1, Run 2.
Another data set deals with BTK (Homo sapiens, UniProt Q06187). The data set can be described thus: biochemical. The note with it: read-out: % enzyme activity, 1 μM; Run 1, Run 2.
BTK, sequence (Q06187 whole entry): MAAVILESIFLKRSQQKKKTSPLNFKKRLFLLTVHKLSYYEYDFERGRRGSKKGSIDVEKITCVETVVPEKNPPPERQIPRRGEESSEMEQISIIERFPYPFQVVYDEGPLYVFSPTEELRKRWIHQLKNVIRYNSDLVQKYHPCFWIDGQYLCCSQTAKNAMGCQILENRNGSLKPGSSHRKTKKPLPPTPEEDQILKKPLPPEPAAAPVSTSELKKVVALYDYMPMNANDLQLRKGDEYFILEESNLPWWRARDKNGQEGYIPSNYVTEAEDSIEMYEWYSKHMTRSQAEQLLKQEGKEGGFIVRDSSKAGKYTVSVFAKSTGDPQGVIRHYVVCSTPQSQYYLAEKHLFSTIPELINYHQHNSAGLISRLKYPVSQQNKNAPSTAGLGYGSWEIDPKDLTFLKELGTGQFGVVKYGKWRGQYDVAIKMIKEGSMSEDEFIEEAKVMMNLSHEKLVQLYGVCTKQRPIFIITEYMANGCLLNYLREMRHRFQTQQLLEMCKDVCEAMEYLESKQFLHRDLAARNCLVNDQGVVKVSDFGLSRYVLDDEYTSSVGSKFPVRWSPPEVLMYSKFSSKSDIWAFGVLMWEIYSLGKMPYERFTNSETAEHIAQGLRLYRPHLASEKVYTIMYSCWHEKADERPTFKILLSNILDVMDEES
A further data set addresses JNK3 (Homo sapiens, UniProt P53779). The data set can be described thus: biochemical. As to conditions: read-out: % enzyme activity, 1 μM; Run 1, Run 2.
In the next data set the target is MSK1/RPS6KA5 (Homo sapiens, UniProt O75582). The data set can be described thus: biochemical. As to conditions: read-out: % enzyme activity, 1 μM; Run 1, Run 2.
MSK1/RPS6KA5, sequence (O75582 whole entry): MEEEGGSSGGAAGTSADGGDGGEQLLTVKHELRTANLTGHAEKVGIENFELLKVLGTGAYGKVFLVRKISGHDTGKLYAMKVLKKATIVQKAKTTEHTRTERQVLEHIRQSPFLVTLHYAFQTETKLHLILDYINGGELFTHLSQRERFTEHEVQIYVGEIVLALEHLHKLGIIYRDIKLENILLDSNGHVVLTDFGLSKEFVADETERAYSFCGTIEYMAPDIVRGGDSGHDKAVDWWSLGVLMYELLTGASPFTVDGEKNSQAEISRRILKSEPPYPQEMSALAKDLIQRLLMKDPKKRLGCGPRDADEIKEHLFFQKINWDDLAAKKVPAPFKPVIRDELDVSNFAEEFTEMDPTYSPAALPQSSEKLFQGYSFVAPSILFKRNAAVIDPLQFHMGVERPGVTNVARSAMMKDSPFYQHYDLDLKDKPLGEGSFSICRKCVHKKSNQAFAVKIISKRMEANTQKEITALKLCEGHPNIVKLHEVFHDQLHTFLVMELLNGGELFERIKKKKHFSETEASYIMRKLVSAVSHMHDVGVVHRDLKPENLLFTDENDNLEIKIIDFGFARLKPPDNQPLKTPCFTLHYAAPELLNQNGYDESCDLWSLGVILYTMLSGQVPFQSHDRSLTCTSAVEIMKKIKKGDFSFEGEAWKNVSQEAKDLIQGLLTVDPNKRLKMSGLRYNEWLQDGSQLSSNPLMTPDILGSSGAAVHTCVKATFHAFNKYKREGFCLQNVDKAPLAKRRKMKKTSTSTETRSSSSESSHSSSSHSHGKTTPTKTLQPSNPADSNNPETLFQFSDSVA
Another data set deals with RSK4 (Homo sapiens, UniProt Q9UK32). The data set can be described thus: biochemical. The note with it: read-out: % enzyme activity, 1 μM; Run 1, Run 2.

FLT4/VEGFR3, sequence (P35916 25-1363): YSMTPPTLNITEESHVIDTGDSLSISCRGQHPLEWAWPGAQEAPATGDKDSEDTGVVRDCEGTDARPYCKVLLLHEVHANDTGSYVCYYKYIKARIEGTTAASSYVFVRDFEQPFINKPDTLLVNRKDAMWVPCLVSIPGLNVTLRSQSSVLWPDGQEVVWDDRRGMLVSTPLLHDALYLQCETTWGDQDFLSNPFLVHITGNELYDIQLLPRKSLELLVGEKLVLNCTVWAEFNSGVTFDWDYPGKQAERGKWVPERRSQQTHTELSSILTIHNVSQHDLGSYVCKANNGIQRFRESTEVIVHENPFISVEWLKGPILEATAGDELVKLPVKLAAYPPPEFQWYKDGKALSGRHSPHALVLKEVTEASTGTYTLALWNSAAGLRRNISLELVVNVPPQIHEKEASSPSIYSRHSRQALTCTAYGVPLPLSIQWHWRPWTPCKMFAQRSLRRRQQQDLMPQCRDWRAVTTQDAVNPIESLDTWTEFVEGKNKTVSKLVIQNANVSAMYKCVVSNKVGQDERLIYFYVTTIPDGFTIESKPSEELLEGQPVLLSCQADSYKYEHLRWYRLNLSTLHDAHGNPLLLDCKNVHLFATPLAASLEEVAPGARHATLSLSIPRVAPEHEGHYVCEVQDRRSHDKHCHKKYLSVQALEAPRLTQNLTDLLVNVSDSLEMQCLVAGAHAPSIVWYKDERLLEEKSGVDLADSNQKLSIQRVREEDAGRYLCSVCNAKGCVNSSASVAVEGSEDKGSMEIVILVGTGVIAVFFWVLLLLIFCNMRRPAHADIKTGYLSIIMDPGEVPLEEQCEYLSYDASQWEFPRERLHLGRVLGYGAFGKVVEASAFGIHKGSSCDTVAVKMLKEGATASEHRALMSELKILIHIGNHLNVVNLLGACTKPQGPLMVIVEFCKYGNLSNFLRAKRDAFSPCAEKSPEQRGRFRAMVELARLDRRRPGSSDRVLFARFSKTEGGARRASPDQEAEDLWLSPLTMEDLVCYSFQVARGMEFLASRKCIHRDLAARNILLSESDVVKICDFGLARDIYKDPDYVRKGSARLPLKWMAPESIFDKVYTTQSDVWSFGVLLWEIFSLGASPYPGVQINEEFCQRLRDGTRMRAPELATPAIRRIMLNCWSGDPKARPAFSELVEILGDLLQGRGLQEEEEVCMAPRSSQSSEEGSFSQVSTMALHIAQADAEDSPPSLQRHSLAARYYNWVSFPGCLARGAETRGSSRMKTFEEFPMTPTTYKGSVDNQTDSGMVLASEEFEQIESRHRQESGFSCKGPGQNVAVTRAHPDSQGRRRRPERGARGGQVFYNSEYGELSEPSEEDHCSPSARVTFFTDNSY

On to `COc1cc(-c2cncc(-c3ccc(N4CCN(C)CC4)cc3)c2C)cc(F)c1C(N)=O` [Compound 26a, 2-Fluoro-6-methoxy-4-(4-methyl-5-(4-(4-methylpiperazin-1-yl)phenyl)pyridin-3-yl)benzamide], for which, in data set [1], the fraction remaining at 1 h, 1 μM came out at 78%. In addition, the “% enzyme activity” value on CDK2/cyclin E2 was 104.96%; on CDK5/P25 it was 91.77%; at EPHA7 it was 98.85%; at FLT4/VEGFR3, 97.81%; at Haspin, 82.77%; on NEK9, 91.72%. The “% enzyme activity” value at PAK6 is reported as 97.22%; on STK32B/YANK2, 87.20%; at STK33, 88.77%. For the same compound, the remaining activity at 1 µM on BTK was 95.3%; on JNK3, 96.4%; at MSK1/RPS6KA5, 87.1%; on RSK4, 96%.
Take `COc1cc(-c2cncc(-c3ccc(N4C[C@@H](C)N(C)[C@@H](C)C4)cc3)c2C)cc(F)c1C(N)=O` [Compound 26c, 2-Fluoro-6-methoxy-4-(4-methyl-5-(4-((3R,5S)-3,4,5-trimethylpiperazin-1-yl)phenyl)pyridin-3-yl)benzamide]: the fraction remaining at 1 h, 1 μM in data set [1] stood at 47.5%. In addition, the “% enzyme activity” value at CDK2/cyclin E2 was 93.14%; at CDK5/P25 it was 94.09%; on EPHA7, 98.36%; on FLT4/VEGFR3 it was 96.61%; at Haspin, 82.31%; on NEK9, 93.51%. Further, the results for the “% enzyme activity” value on PAK6, on STK32B/YANK2 and on STK33 were 95.67%, 94.20% and 96.94%, respectively. In addition, the remaining activity at 1 µM on BTK worked out at 96.5%; at JNK3, 104%; on MSK1/RPS6KA5 it was 90.5%; at RSK4, 95.5%.
